From ChEMBL document CHEMBL5131389, “PSMA-targeted small-molecule docetaxel conjugate: Synthesis and preclinical evaluation” (Eur J Med Chem, 2022) come the findings set out here.

The target of series [1] is Glutamate carboxypeptidase 2 (Homo sapiens, UniProt Q04609). Briefly: Inhibition of GCPII (unknown origin).
Series [2] can be described thus: Selectivity ratio of CC50 for cytotoxicity against human PC-3 cells to CC50 for cytotoxicity against human 22Rv1 cells.
The subject of series [3] is PC-3. Briefly: Cytotoxicity against human PC-3 cells assessed as reduction in cell viability measured after 72 hrs by MTT assay. Type of series: functional. For orientation: Formazan colour is commonly taken as a measure of viable cells.
For series [4], the system named is CWR22R. Briefly: Cytotoxicity against human 22Rv1 cells assessed as reduction in cell viability measured after 72 hrs by MTT assay. Type of series: functional.
A short description of series [5]: Chronic toxicity in rat assessed as change in relative heart mass administered intravenously as pluronic F127 formulation at 4 intervals for 21 days and observed 3 weeks post last injection. The format is tissue-based. Particulars: in vivo, iv, 2544 h, time 106 day.
In series [6] the test system is CWR22R. Nature of the series: Antitumor activity against human 22Rv1 cells xenografted in Balb/c nude mouse assessed as tumor growth inhibition at 10 mg/kg, ip administered daily for 5 days and measured at day 34 relative to control. Type of series: functional. Also on record: scale not given: the % may be the effect or the level left. Particulars: time 34 day. In general terms: Xenograft models place foreign cells or tissue in a host animal.

The subject of series [7] is DU-145. Nature of the series: Antitumor activity against human DU-145 cells xenografted in BALB/c nude mouse assessed as reduction in tumor growth index at 12.4 mg/kg, ip measured upto 30 days (reference value: 799 +/- 121.8 %). The note with it: time <= 30 day. Type of series: functional. More on the design: scale not given: the % may be the effect or the level left.

A short description of series [8]: Chronic toxicity in rat assessed as neurological disorder administered intravenously as pluronic F127 formulation at 4 intervals for 21 days and observed 3 weeks post last injection. The note with it: in vivo, iv, 2544 h, time 106 day.
Series [9] can be described thus: Chronic toxicity in rat assessed as reduction in grooming frequency at 15.16 mg/kg, iv administered as pluronic F127 formulation at 4 intervals for 21 days and observed 3 weeks post last injection. The format is organism-based. The note with it: in vivo, 2544 h, time 106 day.
Series [10] is described as follows: Chronic toxicity in rat assessed as increase in relative mass of stomach administered intravenously as pluronic F127 formulation at 4 intervals for 21 days and observed 3 weeks post last injection relative to control. Type of series: tissue-based. The note with it: in vivo, iv, 2544 h, time 106 day.
Series [11] in a line: Chronic toxicity in rat assessed as increase in relative lung mass administered intravenously as pluronic F127 formulation for 4 intervals of 21 days and observed 3 weeks post last injection relative to control. Particulars: in vivo, iv, 2544 h, time 106 day.
The nature of series [12]: Chronic toxicity in rat assessed as increase in relative brain mass administered intravenously as pluronic F127 formulation at 4 intervals for 21 days and observed 3 weeks post last injection relative to control. The format is tissue-based. Particulars: in vivo, iv, 2544 h, time 106 day.
Series [13] has as its system CWR22R. Briefly: Effect on cell stiffness in human 22Rv1 cells assessed as increase in young's modulus at 1 nM measured after 1 hr by topography based scanning ion-conductance microscopic analysis. The format is functional.
Series [14] in a line: Toxicity in Balb/c nude mouse xenografted with human 22Rv1 cells assessed as animal death at 10 mg/kg, ip measured upto 30 days. The format is organism-based, CWR22R. Particulars: in vivo, 720 h, time < 30 day.
Series [15] is described as follows: Chronic toxicity in rat assessed as change in erythrocytes in blood administered intravenously as pluronic F127 formulation at 4 intervals for 21 days and observed 3 weeks post last injection relative to control. The format is cell-based. The note with it: iv, 2544 h, time 106 day.
Series [16] relates to DU-145. Nature of the series: Antitumor activity against human DU-145 cells xenografted in BALB/c nude mouse assessed as tumor growth inhibition at 12.4 mg/kg, ip measured upto 30 days. The format is functional. Particulars: DU-145, 720 h, time <= 30 day, read-out: TGI.
Series [17] in a line: Chronic toxicity in rat assessed as hair loss administered intravenously as pluronic F127 formulation at 4 intervals for 21 days and observed 3 weeks post last injection. The note with it: in vivo, iv, 2544 h, time 106 day.
The nature of series [18]: Acute toxicity in iv dosed ICR mouse assessed as lethal dose. The format is organism-based. The note with it: in vivo.
Series [19] in a line: Chronic toxicity in rat assessed as increase in relative spleen mass administered intravenously as pluronic F127 formulation at 4 intervals for 21 days and observed 3 weeks post last injection relative to control. Type of series: tissue-based. The note with it: in vivo, iv, 2544 h, time 106 day.
A short description of series [20]: Chronic toxicity in rat assessed as decrease in relative mass of testes administered intravenously as pluronic F127 formulation at 4 intervals for 21 days and observed 3 weeks post last injection relative to control. Particulars: in vivo, iv, 2544 h, time 106 day.
In series [21] the test system is DU-145. Briefly: Antitumor activity against human DU-145 cells xenografted in BALB/c nude mouse assessed as reduction in tumor growth index at 24.8 mg/kg, ip measured upto 30 days (reference value: 799 +/- 121.8 %). Type of series: functional. More on the design: scale not given: the % may be the effect or the level left. The note with it: time <= 30 day.
Series [22] is described as follows: Chronic toxicity in rat assessed as increase in relative mass of adrenal gland administered intravenously as pluronic F127 formulation at 4 intervals for 21 days and observed 3 weeks post last injection relative to control. Type of series: tissue-based. Particulars: in vivo, iv, 2544 h, time 106 day.
The nature of series [23]: Toxicity in BALB/c nude mouse xenografted with human DU-145 cells assessed as animal death at 12.4 to 24.8 mg/kg, ip measured on day 8. The format is organism-based. Particulars: in vivo, dose 12.4-24.8 mg/kg, time 8 day, read-out: Activity.
Series [24] is described as follows: Chronic toxicity in rat assessed as change in volume of excreted urine administered intravenously as pluronic F127 formulation at 4 intervals for 21 days and observed 3 weeks post last injection relative to control. Particulars: in vivo, iv, 2544 h, time 106 day.
Series [25] has as its system PC-3. Nature of the series: Induction of ROS generation in human PC-3 cells at 800 mV holding potential measured after 1 hr by patch clamp amplifier based optical inverted microscopic analysis. The format is functional, cell-based. For orientation: Patch clamp records ionic current or voltage across a cell membrane.
The nature of series [26]: Chronic toxicity in rat assessed as change in alkaline phosphatase level at […], iv administered as pluronic F127 formulation at 4 intervals for 21 days and observed 3 weeks post last injection relative to control. The format is organism-based. Particulars: in vivo, 2544 h, time 106 day.
For series [27], the system named is DU-145. Nature of the series: Antitumor activity against human DU-145 cells xenografted in BALB/c nude mouse assessed as tumor growth inhibition at 24.8 mg/kg, ip measured upto 30 days. The format is functional. The note with it: DU-145, 720 h, time <= 30 day, read-out: TGI.
Series [28] is described as follows: Chronic toxicity in rat assessed as increase in creatinine concentration at […], iv administered as pluronic F127 formulation at 4 intervals for 21 days and observed 3 weeks post last injection relative to control. The format is organism-based. Particulars: in vivo, 2544 h, time 106 day.
Series [29] in a line: Chronic toxicity in rat assessed as increase in relative mass of pancreas administered intravenously as pluronic F127 formulation at 4 intervals for 21 days and observed 3 weeks post last injection relative to control. The note with it: in vivo, iv, 2544 h, time 106 day. Type of series: tissue-based.
Series [30] in a line: Chronic toxicity in rat assessed as increase in relative mass of liver administered intravenously as pluronic F127 formulation at 4 intervals for 21 days and observed 3 weeks post last injection relative to control. Type of series: tissue-based. Particulars: in vivo, iv, 2544 h, time 106 day.
Series [31] relates to PC-3. Briefly: Effect on cell stiffness in human PC-3 cells assessed as increase in young's modulus at 1 nM measured after 1 hr by topography based scanning ion-conductance microscopic analysis. The format is functional.
Series [32] can be described thus: Aqueous solubility of compound. Type of series: physicochemical.
Series [33] can be described thus: Chronic toxicity in rat assessed as reduction in getting up frequency at 15.16 mg/kg, iv administered as pluronic F127 formulation at 4 intervals for 21 days and observed 3 weeks post last injection. Particulars: in vivo, 2544 h, time 106 day. The format is organism-based.
A short description of series [34]: Chronic toxicity in rat assessed as increase in relative kidney weight administered intravenously as pluronic F127 formulation at 4 intervals for 21 days and observed 3 weeks post last injection. Particulars: in vivo, iv, 2544 h, time 106 day. The format is tissue-based.
Series [35] is described as follows: Chronic toxicity in Soviet Chinchilla rabbit assessed as animal death administered intravenously as pluronic F127 formulation at 4 intervals for 21 days and observed one week post first injection. Also on record: species or system Oryctolagus cuniculus. The note with it: in vivo, iv, 168 h, time 7 day.

Each structure is given as a SMILES string. pIC50: −log10 of the molar value. In brackets after ≈: the same amount, converted by molar mass. Several values for one entry are separate records, joined by “and”; a condition that tells them apart may be missing. Equal values may be shown once. Activity calls are given as the source filed them. The calls are words filed in the database; no cut-off is given here.

Glutamate carboxypeptidase 2, sequence (Q04609 whole entry): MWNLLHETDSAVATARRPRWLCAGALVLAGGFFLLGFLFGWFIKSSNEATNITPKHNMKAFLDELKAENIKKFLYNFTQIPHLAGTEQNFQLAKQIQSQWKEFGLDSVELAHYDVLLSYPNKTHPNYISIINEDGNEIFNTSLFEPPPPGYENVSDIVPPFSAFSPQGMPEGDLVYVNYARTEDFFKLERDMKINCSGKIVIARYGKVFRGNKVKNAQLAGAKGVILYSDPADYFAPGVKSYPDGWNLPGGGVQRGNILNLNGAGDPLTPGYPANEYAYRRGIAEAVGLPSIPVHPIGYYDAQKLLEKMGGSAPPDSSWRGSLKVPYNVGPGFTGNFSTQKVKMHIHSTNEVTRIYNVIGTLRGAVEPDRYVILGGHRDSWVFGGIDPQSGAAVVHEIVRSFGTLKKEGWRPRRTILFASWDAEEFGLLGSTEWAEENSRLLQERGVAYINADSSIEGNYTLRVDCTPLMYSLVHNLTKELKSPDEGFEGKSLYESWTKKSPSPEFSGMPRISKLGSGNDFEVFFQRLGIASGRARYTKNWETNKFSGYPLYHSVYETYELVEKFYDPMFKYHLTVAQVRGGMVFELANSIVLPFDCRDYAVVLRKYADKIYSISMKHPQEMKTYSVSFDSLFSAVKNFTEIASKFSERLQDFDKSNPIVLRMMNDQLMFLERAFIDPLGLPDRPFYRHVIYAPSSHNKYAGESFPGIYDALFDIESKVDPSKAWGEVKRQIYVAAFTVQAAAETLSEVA

The compound `[N-]=[N+]=NCCCNC(=O)[C@H](Cc1ccc(O)cc1)NC(=O)[C@H](Cc1ccccc1)NC(=O)CCC(=O)NCCCCCC(=O)N(CCCC[C@H](NC(=O)N[C@@H](CCC(=O)O)C(=O)O)C(=O)O)Cc1cccc(Cl)c1` gave a pIC50 in series [1] of 8.05.
Take `CC(=O)O[C@@]12CO[C@@H]1C[C@H](O)[C@@]1(C)C(=O)[C@H](O)C3=C(C)[C@@H](OC(=O)[C@H](OC(=O)CCCc4cn(CCCNC(=O)[C@H](Cc5ccccc5)NC(=O)[C@H](Cc5ccccc5)NC(=O)CCC(=O)NCCCCCC(=O)N(CCCC[C@H](NC(=O)N[C@@H](CCC(=O)O)C(=O)O)C(=O)O)Cc5ccccc5)nn4)[C@@H](NC(=O)OC(C)(C)C)c4ccccc4)C[C@@](O)([C@@H](OC(=O)c4ccccc4)[C@H]21)C3(C)C` (single isomer, unassigned): the Selectivity ratio in series [2] is 1.5. Further, the CC50 in series [3] was found to be 20 nM; in series [4], 13 nM.
For the compound `CC(=O)O[C@@]12CO[C@@H]1C[C@H](O)[C@@]1(C)C(=O)[C@H](O)C3=C(C)[C@@H](OC(=O)[C@H](O)[C@@H](NC(=O)OC(C)(C)C)c4ccccc4)C[C@@](O)([C@@H](OC(=O)c4ccccc4)[C@H]21)C3(C)C` [DOCETAXEL ANHYDROUS], the Activity result is on record as “Non-Toxic” in series [5]; 88% in series [6]; 261.3% in series [7]; “Toxic” in series [8]; “Toxic” in [9]; “Toxic” in [10]. For the same compound, the Activity result in [11] is reported as “Toxic”; in [12], “Toxic”; in [14], “Toxic”; in series [15], “Non-Toxic”; in series [17] it was “Toxic”; in [19], “Non-Toxic”. In addition, the Activity result is on record as “Non-Toxic” in [20]; 84.8% in [21]; “Toxic” in series [22]; “Toxic” in series [24]; “Toxic” in series [26]; “Toxic” in [28]. The Activity result in [29], in [30], in series [33], in series [34] and in series [35] was “Toxic” throughout. The result in series [13], in series [25] and in series [31] was Active. Further, the inhibition in vivo at 12.4 mg/kg in series [16] worked out at 47.1%. For the same compound, the LD50 in series [18] was 138 mg/kg and 171 µmol/kg. Further, the Selectivity ratio in series [2] is given as 1. For the same compound, the CC50 in series [3] and in series [4] was 1 nM each time. Also, the mortality at 192 h in series [23] stood at 100%. Besides, in series [27], the inhibition in vivo at 24.8 mg/kg was 73.5%. Besides, the solubility in series [32] was 3 µg/mL (≈ 3.71 µM).
On to `CC(=O)O[C@@]12CO[C@@H]1C[C@H](O)[C@@]1(C)C(=O)[C@H](O)C3=C(C)[C@@H](OC(=O)[C@H](OC(=O)CCCc4cn(CCCNC(=O)[C@@H](Cc5ccccc5)NC(=O)[C@@H](Cc5ccccc5)NC(=O)CCC(=O)NCCCCCC(=O)N(CCCC[C@H](NC(=O)N[C@@H](CCC(=O)O)C(=O)O)C(=O)O)Cc5ccc(Cl)c(F)c5)nn4)[C@@H](NC(=O)OC(C)(C)C)c4ccccc4)C[C@@](O)([C@@H](OC(=O)c4ccccc4)[C@H]21)C3(C)C`, for which, in series [2], the Selectivity ratio came out at 1.8. Further, the CC50 in series [3] came to 52 nM; in [4] it was 29 nM.

In general, pIC50 refers to the IC50 on a negative log10 scale, so that one unit is a factor of ten. What is called CC50 is the concentration at which the toxic effect on the cells reaches its halfway point. Usually LD50 stands for the dose at which mortality reaches 50%. A word on the solubility: it is how much of the substance goes into solution per volume.
